{"source": "patent US7985434B2", "about": "“Compositions of atomized or lyophilized maca (Lepidium meyenii) extracts and atomized or lyophilized yacon (Smallanthus sanchifolius) extracts as adjuvants in the treatment of different conditions” (Universidad Peruana Cayetano Heredia, priority 2009, dated 2011)", "key": {"spermatozoids [1]": {"system": "spermatozoids", "assay": "Count or daily production of spermatozoids (synthetic macamide)", "assay_type": "in vivo", "conditions": "inventors' laboratory (Gonzales, 2006 page 104)", "from_the_text": "(§1) In the inventors' laboratory, the effect of a synthetic macamide, N-benzyl-5-oxo-6E, 8E-octadecadienamide, has been tested, which had no effect in the count or daily production of spermatozoids (Gonzales, 2006 page 104). […] Most of the biological activity is rather found in the more polar fractions (Gonzales, 2006; 2006a; Valerio & Gonzales, 2005)."}, "spermatozoids [2]": {"system": "spermatozoids", "assay": "Number of spermatozoids in mice", "assay_type": "in vivo", "from_the_text": "as §1"}, "Bacillus subtilis": {"system": "Bacillus subtilis", "conditions": "between six sesquiterpene lactones tested; cited from earlier work"}}}
{"compound": "CCCCCCCCC/C=C/C=C/C(=O)CCCC(=O)NCc1ccccc1", "note": "[N-benzyl-5-oxo-6E, 8E-octadecadienamide]", "values": [{"measurement": "effect in the count or daily production of spermatozoids", "setting": "spermatozoids [1]", "value": "no effect"}]}
{"compound": "CCCCCCCCCCCCCCCC(=O)NCc1ccccc1", "note": "[N-benzyl-hexadecanamide]", "values": [{"measurement": "effect on the number of spermatozoids", "setting": "spermatozoids [2]", "value": "not been observed"}]}
{"compound": "Fluctuanine", "values": [{"measurement": "antibacterial activity", "setting": "Bacillus subtilis", "value": "greatest antibacterial activity"}]}
